Measurements published in PubChem BioAssay (NCI).
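Cells were grown in 96-well plates and exposed to each compound for 48 hours at five concentrations; endpoints were interpolated linearly between bracketing concentrations, or set to the highest concentration if not reached. GI50 is the concentration that inhibits growth by half. TGI denotes the concentration required for complete inhibition of growth.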

What was measured:
Experiment in all cases: NCI-60 cell line screen, 48 h
[1] = system: UACC-62 melanoma
[2] = system: NCI/ADR-RES ovarian
[3] = system: OVCAR-5 ovarian
[4] = system: U251 CNS
[5] = system: HT29 colon
[6] = system: SF-295 CNS
[7] = system: RPMI-8226 leukemia
[8] = system: SNB-19 CNS
[9] = system: CCRF-CEM leukemia
[10] = system: SK-MEL-2 melanoma

Compound	TGI [1]	TGI [2]	TGI [3]	TGI [4]	TGI [5]	TGI [6]	TGI [7]	TGI [8]	TGI [9]	GI50 [1]	GI50 [2]	GI50 [3]	GI50 [4]	GI50 [10]	TGI [10]	GI50 [5]	GI50 [6]	GI50 [7]	GI50 [8]	GI50 [9]
COC(=O)C1(Cc2cccc(Cl)c2)CCCCCCN1C(=O)c1ccccc1 (centres undefined)	28.5 µM	54.1 µM	44.7 µM	29.7 µM	32.1 µM	22.1 µM	32.2 µM	31.2 µM	31.6 µM											
COc1cc(C2C(C#N)=C(N)OC3=C2C(=O)c2ccccc2C3=O)cc(OC)c1OC (centres undefined)	2.02 µM	22.5 µM	18.6 µM	44 µM	41.3 µM	24.8 µM	33.5 µM	> 100 µM		0.396 µM	3.23 µM	4.26 µM	3.38 µM	0.998 µM	19.2 µM	3.45 µM	8.29 µM	1.36 µM	11.2 µM	
O=C1C2=C(c3ccccc31)C(c1ccccc1Cl)N1C(=O)CSC1=N2 (centres undefined)	> 100 µM		> 100 µM	> 100 µM	> 100 µM	> 100 µM	> 100 µM	> 100 µM	> 100 µM						> 100 µM					
COC1=C(OC)CCC(/C(C#N)=C/c2ccc(OC)c(OC)c2)=C1	> 100 µM		> 100 µM	> 100 µM	> 100 µM	> 100 µM	> 100 µM		> 100 µM						> 100 µM					
O=Cc1coc2ccccc2c1=O	52.8 µM	34.9 µM	56.2 µM	65.2 µM	46.1 µM	41.2 µM	52.1 µM	70.4 µM	69.7 µM											
O=c1nc2cc(-c3ccccc3)[nH]c2nn1-c1c(Cl)cc(Cl)cc1Cl	35.6 µM		> 100 µM	34.2 µM	88.7 µM	93.2 µM	61.1 µM	> 100 µM	76.2 µM						94 µM					
C=C(C)C1/C=C(/C(C)C)CC[C@]2(C)O[C@@H]2CC[C@H](C)CC1=O (some centres undefined)	> 100 µM	> 100 µM	> 100 µM	> 100 µM		> 100 µM	34.4 µM	> 100 µM	37.3 µM	80.2 µM	87.4 µM	> 100 µM	54.7 µM	> 100 µM	> 100 µM		71.4 µM	15.5 µM	> 100 µM	18.5 µM
CCOC(=O)C(C)(C)Oc1ccc2c(-c3ccc(Cl)cc3)cc(=O)oc2c1	> 100 µM			> 100 µM	> 100 µM	> 100 µM	> 100 µM	> 100 µM	> 100 µM						> 100 µM					
CCC1(OC(C)=O)C(=O)OCc2c1cc1n(c2=O)Cc2cc3ccccc3nc2-1 (centres undefined)			28.9 µM	2.64 µM	> 100 µM	> 100 µM	> 100 µM	> 100 µM	1.93 µM						> 100 µM					
COc1ccc(NC(=O)C(=O)C2NC(=S)NC2=O)c(OC)c1 (centres undefined)	> 100 µM			> 100 µM	> 100 µM	> 100 µM	> 100 µM	> 100 µM							> 100 µM					
CCc1cccc(C)c1NC(=O)NS(=O)(=O)c1ccc(C)cc1	> 100 µM		> 100 µM	> 100 µM		> 100 µM	> 100 µM	> 100 µM	> 100 µM						> 100 µM					
O=[N+]([O-])c1ccccc1C1N2CCCCC2[C@@H]2c3[nH]c4ccccc4c3CCN12 (some centres undefined)	14.4 µM		40 µM	31.3 µM	20.8 µM	29.8 µM	61.3 µM	33.4 µM	30.4 µM						26.5 µM					
CC(=O)Nc1ccc(-c2nnc(SCC(=O)Nc3ccc(C)cc3)o2)cc1	30.7 µM		39.8 µM	33.6 µM	31.1 µM	35.5 µM	74.7 µM		> 100 µM						34.4 µM					
COc1ccc(C(Nc2ncccn2)c2cc3c(cc2O)OCO3)cc1 (centres undefined)	> 100 µM	> 100 µM	69.6 µM	28.7 µM	58.4 µM	> 100 µM	> 100 µM	31.1 µM							46.9 µM					
C/C(=N\Nc1ccc([N+](=O)[O-])cc1)C(=O)N(C)Nc1ccccc1	> 100 µM			> 100 µM	> 100 µM	> 100 µM	> 100 µM	> 100 µM	> 100 µM						> 100 µM					
Cc1cc(C)nc(NS(=O)(=O)c2ccc(NC(=O)c3cccc4cc5ccccc5nc34)cc2)n1	79.3 µM		> 100 µM	> 100 µM	> 100 µM	> 100 µM	85.7 µM	90.7 µM	77.5 µM						85.6 µM					
COc1ccc(C2S/C(=C\c3ccc(OC)cc3OC)C(=O)N2NC(=O)Cc2ccccc2)cc1 (centres undefined)	> 100 µM		> 100 µM	> 100 µM	> 100 µM	> 100 µM	> 100 µM		> 100 µM						> 100 µM					
CCN(CC)CCCNC(=O)Cc1ccccc1Nc1c(Cl)cccc1Cl	29.5 µM		23.5 µM	25.7 µM	17.6 µM	32.7 µM	29.1 µM	31.8 µM	28.2 µM											
Cc1ccc(Nc2ccc(Nc3ccc(C)cc3)c3c2C(=O)c2c(O)ccc(O)c2C3=O)cc1	> 100 µM		> 100 µM	> 100 µM		> 100 µM	> 100 µM	> 100 µM	> 100 µM						> 100 µM					
CC[C@@H]1OC2(C)CC(S(=O)(=O)c3ccccc3)CC1O2 (some centres undefined)	> 100 µM		> 100 µM	> 100 µM	> 100 µM	> 100 µM	> 100 µM	> 100 µM	> 100 µM						> 100 µM					
Fc1ccccc1C1CC(C(c2ccccc2)c2ccccc2)=Nc2ccccc2S1 (centres undefined)	18.7 µM		33.6 µM	25.5 µM	26.3 µM	26.5 µM	25 µM	32.2 µM	5.57 µM						21.6 µM					
FC(F)(F)c1ccc(-c2cnc(Br)nc2NC2CCCCCC2)cc1	> 100 µM	> 100 µM	> 100 µM	> 100 µM	> 100 µM	> 100 µM	> 100 µM	> 100 µM	> 100 µM	42.6 µM	88.9 µM	> 100 µM	75 µM			71.4 µM	69.6 µM	7.98 µM	> 100 µM	84.7 µM
